ChEMBL document CHEMBL3301448, “MMV Malaria Box screening against Toxoplasma gondii and Entamoeba histolytica”

How the values were obtained:
[1] = system: Toxoplasma gondii; test: MMV: A total of 100ul of inoculum was added to each well (parasite/cell ratio, ~10:1; final volume, 200 ul). Six hours after inoculation, nonadherent parasites were removed, and 100 ul of complete DMEM (1% penicillin-streptomycin, 3% FBS) supplemented with inhibitors at different concentrations (2-fold serial dilutions starting from 30 uM) was added to all except the negative-control wells. Positive controls, consisting of pyrimethamine (PYR) and sulfadiazine (SDZ) (20-mg/ml stocks in DMSO), were tested at a 2mg/ml final concentration. Each test was performed in triplicate.; type: functional, organism-based; settings: 6 h
[2] = system: Entamoeba histolytica; test: MMV: Primary screening was performed with each compound at a 30 uM final concentration and in triplicate in sealed 96-well polystyrene microtiter plates. Parasite inocula (100 ul) comprising 20000 parasites/ml were added to each well and grown at 37 degrees C in a humidified atmosphere of 5% CO2 for 72 h. Positive controls consisted of metronidazole at 1 mg/ml. The growth of E. histolytica trophozoites in each well was determined microscopically by measuring the diameters of the confluent cells in drug-containing wells relative to those in the nega- tive-control wells.; type: functional, organism-based

| Structure (SMILES) | IC50 [1] | IC50 [2] |
| --- | --- | --- |
| Cc1cc(NC(=O)c2cccc(C(F)(F)F)c2)n(-c2nc(-c3ccc4c(c3)OCO4)cs2)n1 | > 30 µM | > 30 µM |
| Cc1cccc(-n2ncc3c(O)nc(-n4nc(C)cc4NC(=O)c4cc5ccccc5o4)nc32)c1 | > 30 µM | > 30 µM |
| O=C(Nc1ccccc1O)c1ccc(Oc2cccc(C(=O)Nc3ccccc3O)c2)cc1 | 13.2 µM | > 30 µM |
| Oc1ccccc1CN1CCC2(CCCN(Cc3ccccc3F)C2)C1 (centres undefined) | > 30 µM | > 30 µM |
| N=c1n(CCN2CCCCC2)c2ccccc2n1CC(O)c1cccc(Br)c1 (centres undefined) | > 30 µM | > 30 µM |
| COc1cccc(O)c1CN1CCC2(CCCN(Cc3ccc(F)cc3)C2)C1 (centres undefined) | > 30 µM | > 30 µM |
| COc1cccc(Nc2nc(NCCO)c3ccccc3n2)c1 | > 30 µM | > 30 µM |
| Cc1ccc(-c2cc(C(=O)Nc3ccc(S(=O)(=O)N4CCCCC4)cc3)[nH]n2)c(O)c1 | > 30 µM | > 30 µM |
| O=C(NCc1ccco1)C1CCN(S(=O)(=O)c2ccc(Cl)cc2)CC1 | > 30 µM | > 30 µM |
| COc1ccc(C(=O)Nc2ccc3nc(N4CCCCC4)cc(C)c3c2)cc1OC | 25.7 µM | > 30 µM |
| COCCNCC(O)Cn1c2ccc(Cl)cc2c2cc(Cl)ccc21 (centres undefined) | > 30 µM | > 30 µM |
| COc1ccc(N2CCN(C(CNC(=O)C3CCCCC3)c3ccc4c(c3)OCO4)CC2)cc1 (centres undefined) | 26.6 µM | > 30 µM |
| FC(F)(F)c1ccc(Nc2nnnc3ccccc23)cc1 | > 30 µM | > 30 µM |
| c1ccc(-c2ccc(-c3nc4ccccc4[nH]3)cc2)cc1 | > 30 µM | > 30 µM |
| CCC(C)NCC(O)(c1ccc(Cl)cc1)c1ccc(Cl)cc1 (centres undefined) | > 30 µM | > 30 µM |
| COc1cc2cc(C(=O)Nc3ccccc3)c(N)nc2cc1OC | > 30 µM | > 30 µM |
| COc1cccc(NC(=O)Cn2c(C)c(C#N)c3ccccc32)c1 | > 30 µM | > 30 µM |
| Cn1c(=O)c2cc(C(=O)NCCCN3CCCCCC3)sc2c2ccccc21 | > 30 µM | > 30 µM |
| Cc1[nH]c(-c2ccc(F)cc2)cc1C(=O)NC1CCN(Cc2ccccc2)CC1 | > 30 µM | > 30 µM |
| COc1ccc(CCN2CCC(CN(C)Cc3cnn(-c4ccccc4)c3)CC2)cc1 | > 30 µM | > 30 µM |
| O=C(NC(c1ccccc1)c1ccc2cccnc2c1O)c1ccccc1 (centres undefined) | > 30 µM | > 30 µM |
| COCCNC(=O)c1ccc(OC2CCN(Cc3ccc(F)c(F)c3)CC2)c(Cl)c1 | > 30 µM | > 30 µM |

| Structure (SMILES) | IC50 [1] | IC50 [2] |
| --- | --- | --- |
| Oc1ccccc1CN1CCN(C(c2ccccc2)c2ccccc2)CC1 | > 30 µM | > 30 µM |
| O=C(NC1CCCC1)c1ccc(N2CCC(NCc3cccc(C(F)(F)F)c3)CC2)cc1 | > 30 µM | > 30 µM |
| CCOc1cc(Br)c(C(C)NC(=O)c2cccc(OC)c2)cc1OCC (centres undefined) | > 30 µM | > 30 µM |
| CC(C)=CCN1CCC(C(=O)Nc2ccc(-c3nc4ccccc4[nH]3)cc2)CC1 | > 30 µM | > 30 µM |
| CCN(CC)CCn1c(=N)n(CC(O)c2ccc(Cl)c(Cl)c2)c2ccccc21 (centres undefined) | > 30 µM | > 30 µM |
| CCOc1cc(Cl)c(C(C)NC(=O)c2cccc(OC)c2)cc1OCC (centres undefined) | > 30 µM | > 30 µM |
| O=C(CCc1ccco1)NC1CCN(CC2(c3ccc(Cl)cc3)CCC2)CC1 | 24 µM | > 30 µM |
| FC(F)(F)c1cccc(Nc2nc(-c3ccccc3)nc3ncccc23)c1 | > 30 µM | > 30 µM |
| CCN1CCN(c2cc(C)c3cc(NC(=O)c4ccc(OC)c(OC)c4)ccc3n2)CC1 | > 30 µM | > 30 µM |
| Cc1ccc(Cl)cc1N1CCN(CCCNC(=O)C2CCN(c3nc4ccccc4[nH]3)CC2)CC1 | > 30 µM | > 30 µM |
| COc1ccc(CNC2CCN(c3ccc(NC(=O)c4cccc(Cl)c4)cc3)CC2)cc1OC | > 30 µM | > 30 µM |
| COCCN(C(=O)Cc1cccs1)C(C(=O)NCc1ccc(OC)cc1)c1ccc(C(C)C)cc1 (centres undefined) | > 30 µM | > 30 µM |
| Cc1ccc(CSCc2ccc(C(=O)NC3CC3)o2)cc1 | 22.3 µM | > 30 µM |
| CC(NCc1ccccc1)c1cc(Cl)ccc1O (centres undefined) | 21.4 µM | > 30 µM |
| CN1CCN(c2c3c(c(C#N)c4nc5ccccc5n24)CCC3)CC1 | > 30 µM | > 30 µM |
| FC(F)(F)c1cccc(CNC2CCN(CCc3ccccc3)CC2)c1 | > 30 µM | > 30 µM |
| Oc1ccc(Cl)cc1CNc1nc2ccccc2[nH]1 | 26.8 µM | > 30 µM |
| O=C(c1ccccc1F)N(Cc1ccc(Cl)cc1)c1ccccn1 | > 30 µM | > 30 µM |
| COc1ccc(C(=O)Nc2ccc(Cl)cc2C(=O)Nc2ccncc2)cc1 | > 30 µM | > 30 µM |
| O=C(Nc1ccc(CN2CCOCC2)cc1)c1ccc(-c2ccc(Br)cc2)o1 | > 30 µM | > 30 µM |
| CC(=O)NCCc1nc2ccccc2n1Cc1ccc(C(C)C)cc1 | > 30 µM | > 30 µM |
| COc1nc(Nc2ccc(C(C)C)cc2)nc(OC)n1 | > 30 µM | > 30 µM |

| Structure (SMILES) | IC50 [1] | IC50 [2] |
| --- | --- | --- |
| CCN(CC)CCNc1ncnc2c1[nH]c1ccc(Br)cc12 | > 30 µM | > 30 µM |
| O=C(Nc1ccc(Cl)cc1)N1CCN(c2ccc3nncn3n2)CC1 | > 30 µM | > 30 µM |
| CN(C)c1ccc(-c2nc3cc(N)ccc3[nH]2)cc1 | > 30 µM | > 30 µM |
| O=C(CSc1ccc2nnc(-c3cccc(F)c3)n2n1)Nc1ccc2c(c1)OCO2 | > 30 µM | > 30 µM |
| Cc1c(C)n(Cc2ccc(F)cc2)c2ccc(C(=O)NCc3ccco3)cc12 | > 30 µM | > 30 µM |
| CCN(CC)c1ccc(NC(=O)c2cccs2)cc1 | > 30 µM | > 30 µM |
| CCCCNCC(O)(c1ccc(Cl)cc1)c1ccc(Cl)cc1 | > 30 µM | > 30 µM |
| CCCC(c1nnnn1C1CCCCC1)N1CCN(C(=O)c2ccco2)CC1 (centres undefined) | > 30 µM | > 30 µM |
| CC(C)(C)C(=O)Nc1ccc(C(=O)Nc2cccc(-c3nc4ccccc4[nH]3)c2)cc1 | > 30 µM | > 30 µM |
| COc1ccc(-c2nonc2NC(=O)c2cccc(C)c2)cc1OC | > 30 µM | > 30 µM |
| COc1cccc(-c2nn(C)c3sc(C(=O)NCCN4CCN(c5ccccc5F)CC4)cc23)c1 | > 30 µM | > 30 µM |
| O=C(Nc1ccc(N2CCN(Cc3ccccc3)CC2)cc1)c1cccs1 | > 30 µM | > 30 µM |
| Cc1ccc(CN2CCC(C(=O)Nc3ccc(-c4cc5ccccc5[nH]4)cc3)CC2)o1 | > 30 µM | > 30 µM |
| O=C(Nc1ccc(N2CCCCC2)c(Cl)c1)c1ccc(Br)o1 | > 30 µM | > 30 µM |
| Cc1cc(C)c2nc(N3CCC(C(=O)NCCCN4CCC(N5CCCCC5)CC4)CC3)sc2c1 | > 30 µM | > 30 µM |
| O=C(Nc1ccsc1C(=O)NC1CCCCC1)c1ccc(F)cc1 | > 30 µM | > 30 µM |
| O=C(Nc1cccc(C(F)(F)F)c1)c1cc(Cl)ccc1O | > 30 µM | > 30 µM |
| CC(C)(C)c1ccc(C(=O)Nc2nc3ccccc3s2)cc1 | > 30 µM | > 30 µM |
| CCOc1cccc2sc(N(Cc3cccnc3)C(=O)C3CCCCC3)nc12 | > 30 µM | > 30 µM |
| CC1CC(C)CN(C(=O)c2ccc(Cl)cc2Cl)C1 (centres undefined) | > 30 µM | > 30 µM |
| COc1ccccc1CNC(=O)C1c2ccccc2C(=O)N(CC(C)C)C1c1cccs1 (centres undefined) | > 30 µM | > 30 µM |
| COc1ccc(C2N(C)c3ccccc3N2C)cc1 | > 30 µM | > 30 µM |

| Structure (SMILES) | IC50 [1] | IC50 [2] |
| --- | --- | --- |
| CCN(CC)c1cc(C)c2cc(NC(=O)c3cccc(OC)c3)ccc2n1 | > 30 µM | > 30 µM |
| CC(C)(C)CC(C)(C)NCC(O)COc1ccc2c(c1)CCC2 (centres undefined) | > 30 µM | > 30 µM |
| CCOc1ccc(/C=C/c2nc(=O)c3ccccc3o2)cc1 | > 30 µM | > 30 µM |
| O=C(Nc1ccccc1O)c1ccc(-c2ccc(Cl)cc2Cl)o1 | > 30 µM | > 30 µM |
| CC(C)OCc1cc(CN2CCN(c3cccc(Cl)c3)CC2)c(O)c2ncccc12 | > 30 µM | > 30 µM |
| O=C(Nc1nc(-c2ccccn2)cs1)c1ccccc1Br | > 30 µM | > 30 µM |
| O=C(Nc1ccc(F)c(Cl)c1)Nc1ccc(Cl)c(Cl)c1 | 26.5 µM | > 30 µM |
| CC(O)(c1ccc(Cl)cc1)C(CN1CCCCC1)c1ccccc1 (centres undefined) | > 30 µM | > 30 µM |
| CCOc1ccc(-c2nc(NC(=O)c3cccc(S(C)(=O)=O)c3)sc2C)cc1 | > 30 µM | > 30 µM |
| CCOc1ccccc1CNC(=O)C1c2ccccc2C(=O)N(CC(C)C)C1c1cccs1 (centres undefined) | > 30 µM | > 30 µM |
| Clc1ccc2[nH]c3c(NCCCN4CCOCC4)ncnc3c2c1 | > 30 µM | > 30 µM |
| COc1ccccc1N1CCN(C(CNS(=O)(=O)c2ccc(Cl)cc2)c2cccnc2)CC1 (centres undefined) | > 30 µM | > 30 µM |
| CCCc1c(C)nc2ccccc2c1O | > 30 µM | > 30 µM |
| CCOc1c(Cl)cc(CNC(C)C(O)c2ccccc2)cc1OC (centres undefined) | > 30 µM | > 30 µM |
| COc1ccc(C2Sc3ccccc3N=C3C2=C(O)c2ccccc23)cc1 (centres undefined) | > 30 µM | > 30 µM |
| CCCN(CCC)CCCNC(=O)c1cc2c(-c3ccc(OC)c(OC)c3)nn(C)c2s1 | > 30 µM | > 30 µM |
| CCN(CC)CCCNc1nc(-c2ccc(Cl)cc2)nc2ccccc12 | > 30 µM | > 30 µM |
| CN1c2ccccc2N(C)C1c1ccc2c(c1)OCO2 | > 30 µM | > 30 µM |
| O=C(NCC1Cc2cccc(-c3ccncc3)c2O1)c1csc2c1CCCC2 (centres undefined) | > 30 µM | > 30 µM |
| C=C(C)CCC(C)N1CCC(N2CCC(C(=O)NCCc3ccccc3)CC2)CC1 (centres undefined) | 27.1 µM | > 30 µM |
| C=CCc1c(C)nc2ccccc2c1O | > 30 µM | > 30 µM |
